Data as given in PMC9791658 (Journal of Medicinal Chemistry, 2022).

Legend:
14-3-3ζ/ERα_pT594 = 14-3-3ζ/ERα_pT594 (Homo sapiens, UniProt P03372+P63104); test: Fluorescence polarization; assay type: binding; conditions: FP assay
14-3-3ζ/GR_pT524 [1] = biological target: 14-3-3ζ/GR_pT524 (Homo sapiens, UniProt P04150+P63104); test: Fluorescence polarization; assay type: binding; conditions: for 14-3-3/GR PPI stabilization activity (in words): FP assay
Caco-2 cells = test: Permeability across Caco-2 cell monolayers; assay type: in vitro ADME; conditions: for permeability classification: Caco-2; for increase of permeability vs 1: Caco-2 Papp(A to B) relative to compound 1
14-3-3ζ/GR_pT524 [2] = biological target: T1, 14-3-3ζ/GR_pT524 (Homo sapiens, UniProt P63104); test: SPR assay of GR_pT524 with 14-3-3ζ in the absence and presence of FC-A; assay type: binding; conditions: FC-A 1 mM
T1 sequence (P63104 1-245): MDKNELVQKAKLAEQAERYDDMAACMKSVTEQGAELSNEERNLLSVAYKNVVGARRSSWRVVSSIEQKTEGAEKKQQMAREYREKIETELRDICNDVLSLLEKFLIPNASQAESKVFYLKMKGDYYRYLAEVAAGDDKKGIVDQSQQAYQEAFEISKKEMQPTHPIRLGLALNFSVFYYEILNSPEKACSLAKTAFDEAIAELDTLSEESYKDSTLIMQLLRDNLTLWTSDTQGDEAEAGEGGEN

| SMILES | 14-3-3/ERα PPI stabilization activity (in words) (14-3-3ζ/ERα_pT594) | 14-3-3/GR PPI stabilization activity (in words) (14-3-3ζ/GR_pT524 [1]) | other results |
| --- | --- | --- | --- |
| O=C(O)c1cc(N2C(=O)C(O)=C(c3ccccc3)C2c2ccc([N+](=O)[O-])cc2)ccc1O (single isomer, unassigned; (-)) [(−)-28, 2-Hydroxy-5-(3-hydroxy-5-(4-nitrophenyl)-2-oxo-4-phenyl-2,5-dihydro-1H-pyrrol-1-yl) benzoic Acid] | no 14-3-3/ERα PPI stabilization activity |  |  |
| O=C(C1=C(O)C(=O)N(c2ccc(O)cc2)C1c1ccc([N+](=O)[O-])cc1)c1ccccc1 (centres unmarked) [Compound 22, 4-Benzoyl-3-hydroxy-1-(4-hydroxyphenyl)-5-(4-nitrophenyl)-1,5-dihydro-2H-pyrrol-2-one] |  | only marginal activity | permeability classification (Caco-2 cells): medium permeability; increase of permeability vs 1 (Caco-2 cells): 3 fold |
| O=C(C1=C(O)C(=O)N(c2ccc(O)c(C(=O)O)c2)C1c1ccc([N+](=O)[O-])cc1)c1ccccc1 (centres unmarked) [Compound 1, 5-(3-Benzoyl-4-hydroxy-2-(4-nitrophenyl)-5-oxo-2,5-dihydro-1H-pyrrol-1-yl)-2-hydroxybenzoic Acid] |  |  | decrease in potency for 14-3-3/GR compared to 14-3-3/ERα (14-3-3ζ/GR_pT524 [1]; from EC1.2 values): approximately 2 fold; permeability classification (Caco-2 cells): low permeability |
| O=C(C1=C(O)C(=O)N(c2ccccc2O)C1c1ccc([N+](=O)[O-])cc1)c1ccccc1 (centres unmarked) [Compound 23, 4-Benzoyl-3-hydroxy-1-(2-hydroxyphenyl)-5-(4-nitrophenyl)-1,5-dihydro-2H-pyrrol-2-one] |  | only marginal activity | permeability classification (Caco-2 cells): medium permeability; increase of permeability vs 1 (Caco-2 cells): 5 fold |
| Nc1ccc(C2C(C(=O)c3ccccc3)=C(O)C(=O)N2c2ccc(O)c(C(=O)O)c2)cc1 (centres unmarked) [Compound 17, 5-(2-(4-Aminophenyl)-3-benzoyl-4-hydroxy-5-oxo-2,5-dihydro-1H-pyrrol-1-yl)-2-hydroxybenzoic Acid] | loss of measurable activity | loss of measurable activity |  |

The next lines start with results.

| 14-3-3/ERα PPI stabilization activity (in words) (14-3-3ζ/ERα_pT594) | 14-3-3/GR PPI stabilization activity (in words) (14-3-3ζ/GR_pT524 [1]) | SMILES | other results |
| --- | --- | --- | --- |
| no 14-3-3/ERα PPI stabilization activity |  | O=C(O)c1cc(N2C(=O)C(O)=C(c3ccccc3)C2c2ccc([N+](=O)[O-])cc2)ccc1O (single isomer, unassigned; (+)) [(+)-28, 2-Hydroxy-5-(3-hydroxy-5-(4-nitrophenyl)-2-oxo-4-phenyl-2,5-dihydro-1H-pyrrol-1-yl) benzoic Acid] |  |
| completely inactive |  | O=C(C1=C(O)C(=O)N(c2ccc(O)c(C(=O)O)c2)[C@H]1c1ccc([N+](=O)[O-])cc1)c1ccccc1 [(S)-1, 5-(3-Benzoyl-4-hydroxy-2-(4-nitrophenyl)-5-oxo-2,5-dihydro-1H-pyrrol-1-yl)-2-hydroxybenzoic Acid] |  |
|  | does not stabilize | C=CC(C)(C)OC[C@H]1O[C@H](O[C@@H]2C3=C([C@H](C)COC(C)=O)C[C@H](O)[C@]3(C)/C=C3/[C@@H](COC)CC[C@H]3[C@@H](C)[C@H]2O)[C@H](O)[C@@H](O)[C@@H]1O [FC-A, Fusicoccin A, reference compound] | effect on the interaction between GR_pT524 and 14-3-3ζ (SPR) (14-3-3ζ/GR_pT524 [2]): does not stabilize |
| abolished activity | abolished activity | O=C(C1=C(O)C(=O)N(c2ccc(O)c(C(=O)O)c2)C1c1ccc([N+](=O)[O-])cc1)c1cccc(OC(F)F)c1 (centres unmarked) [Compound 19, 5-(3-(3-(Difluoromethoxy)benzoyl)-4-hydroxy-2-(4-nitrophenyl)-5-oxo-2,5-dihydro-1H-pyrrol-1-yl)-2-hydroxybenzoic Acid] |  |
| loss of measurable activity | loss of measurable activity | O=C(C1=C(O)C(=O)N(c2ccc(O)c(C(=O)O)c2)C1c1ccccc1)c1ccccc1 (centres unmarked) [Compound 21, 5-(3-Benzoyl-4-hydroxy-5-oxo-2-phenyl-2,5-dihydro-1H-pyrrol-1-yl)-2-hydroxybenzoic Acid] |  |
| inactive |  | O=C(O)c1cc(N2C(=O)C(O)=C(c3ccccc3)C2c2ccc([N+](=O)[O-])cc2)ccc1O (centres unmarked) [Compound 28, 2-Hydroxy-5-(3-hydroxy-5-(4-nitrophenyl)-2-oxo-4-phenyl-2,5-dihydro-1H-pyrrol-1-yl) benzoic Acid] |  |
